pKi: −log10 of the molar value. Where “and” joins values, the source holds several entries; their conditions need not be identical. Equal entries are not always repeated.
Legend:
Micrococcus luteus = conditions: cited from earlier work
Escherichia coli RNAP = Escherichia coli RNAP (Escherichia coli, UniProt P0A8T7+P0A8V2); assay type: biochemical
Text: (A) DNA construct SEQ ID NO:133. (B) Data.
(A) DNA construct SEQ ID NO:134. (B) Data.
Applicant has performed transcription and DNA-binding experiments in order to define the basic mechanism of transcription inhibition by Myx (methods as in Mukhopadhyay, et al. (2004) Mol. Cell. 14, 739-751).
Applicant has performed DNA binding experiments with a series of subfragments of promoter DNA in order to map the interaction of RNAP with promoter DNA inhibited by Myx (methods as in Mukhopadhyay, et al. (2004) Mol. Cell. 14, 739-751). […] This DNA segment corresponds, precisely, to the DNA segment proposed to bind within the RNAP active-center cleft, and to be affected by clamp opening and closing, in structural models of transcription initiation complexes (see Ebright (2000) J. Mol. Biol. 304, 687-698; Murakami, et al. (2003) Curr. Opin. Stuct. Biol. 12, 89-97; Borukhov & Nudler (2003) Curr. Opin. Microbiol. 6, 93-100; Murakami, et al. (2002) Science 296, 1285-1290; Naryshkin, et al. (2000) Cell 101, 601-611; Mekler, et al. (2002) Cell 108, 599-614).

B. megaterium = conditions: cited from earlier work
Pseudomonas aeruginosa = conditions: cited from earlier work
bacterial RNAP = bacterial RNAP (Escherichia coli, UniProt P0A8T7+P0A8V2); conditions: read-out: Ki, inhibition of bacterial RNAP; cited from earlier work
Enterococcus faecium = conditions: cited from earlier work
Mycobacterium smegmatis = conditions: cited from earlier work
[1] = system: Escherichia coli DH21tolC; assay: bacteriocidal activity; assay type: cell-based; conditions: unpublished data
Enterobacter cloacae = conditions: cited from earlier work
[2] = system: Escherichia coli with substitutions in RNAP β′ subunit (rpoC) or β subunit (rpoB); assay: MIC ratio (MIC mutant/MIC wild-type) of resistant rpoC/rpoB mutants; assay type: cell-based
Text: To identify determinants for function of Myx, Applicant has performed random mutagenesis of genes encoding Escherichia coli RNAP β′ subunit (rpoC) and β subunit (rpoB), and has isolated and sequenced five independent Myx-resistant mutants (methods as described in Mukhopadhyay, et al. (2004) Mol. Cell. 14, 739-751).
To further define determinants for function of Myx, Applicant has performed saturation mutagenesis of genes encoding Escherichia coli RNAP β′ subunit (rpoC) and β subunit (rpoB), and has isolated and sequenced more than 100 independent Myx-resistant mutants (methods as described in Mukhopadhyay, et al. (2004) Mol. Cell. 14, 739-751; Tuske, et al. […] Cell 122, 541-552). Saturation mutagenesis was performed using a set of “doped” oligodeoxyribonucleotide primers targeting all codons for residues located within 30 Å of β′ residue 345 and β residues 1275 and 1292 in the three-dimensional structure of bacterial RNAP (primer sequences in Table 2). […]

Bacillus subtilis = conditions: cited from earlier work
[3] = biological target: wild-type Escherichia coli RNAP and [Arg345]β′-RNAP (Escherichia coli, UniProt P0A8T7+P0A8V2, K345R); conditions: [Arg345]β′-RNAP versus wild-type RNAP; FIG. 7
[4] = biological target: T. thermophilus RNAP holoenzyme (Thermus thermophilus, UniProt Q8RQE8+Q8RQE9); assay: inhibition of T. thermophilus RNAP holoenzyme; assay type: biochemical; conditions: unpublished data; read-out: K, inhibition of T. thermophilus RNAP holoenzyme
[5] = system: Corynebacterium mediolanum; conditions: cited from earlier work
mice = conditions: at concentrations up to 100 mg/kg; cited from earlier work
eukaryotic RNAP II = conditions: cited from earlier work
[6] = system: Escherichia coli DH21tolC; conditions: cited from earlier work
Staphylococcus aureus = conditions: cited from earlier work

## CCC/C(C)=C/C=C(\C)C(=O)c1c(O)cc([C@H](C)CC/C=C/NC(=O)OC)oc1=O [Myx, myxopyronin]
Micrococcus luteus
  MIC: ≤ 10 µg/mL
Escherichia coli RNAP
  interaction of RNAP with promoter DNA: preventing stable interaction
  interaction of RNAP with promoter DNA segment comprising positions −40 to −12: does not inhibit
  interaction of RNAP with segment of promoter DNA comprising positions −11 to +15: inhibits
B. megaterium
  MIC: ≤ 10 µg/mL
Pseudomonas aeruginosa
  MIC: ≤ 10 µg/mL
Bacterial RNAP
  pKi: 6.00
Enterococcus faecium
  MIC: ≤ 10 µg/mL
Mycobacterium smegmatis
  MIC: ≤ 10 µg/mL
[1]
  bacteriocidal or not: bacteriocidal
Enterobacter cloacae
  MIC: ≤ 10 µg/mL
[2]; rpoB 1255 Thr→Ile
  MIC ratio (MIC, mutant/MIC, wild-type): 2
[2]; rpoB 1275 Val→Met
  MIC ratio (MIC, mutant/MIC, wild-type): >32
[2]; rpoB 1275 Val→Phe
  MIC ratio (MIC, mutant/MIC, wild-type): >32
[2]; rpoB 1278 Leu→Val
  MIC ratio (MIC, mutant/MIC, wild-type): 2
[2]; rpoB 1279 Glu→Gly
  MIC ratio (MIC, mutant/MIC, wild-type): 32
[2]; rpoB 1279 Glu→Lys
  MIC ratio (MIC, mutant/MIC, wild-type): >32
[2]; rpoB 1283 Ala→Val
  MIC ratio (MIC, mutant/MIC, wild-type): 2
[2]; rpoB 1285 Tyr→Asp
  MIC ratio (MIC, mutant/MIC, wild-type): 2
[2]; rpoB 1291 Leu→Phe
  MIC ratio (MIC, mutant/MIC, wild-type): 2
[2]; rpoB 1298 Val→Leu
  MIC ratio (MIC, mutant/MIC, wild-type): 4 and 2
[2]; rpoB 1315 Met→Leu
  MIC ratio (MIC, mutant/MIC, wild-type): 2
[2]; rpoB 1317 Pro→Leu
  MIC ratio (MIC, mutant/MIC, wild-type): 2
[2]; rpoB 1320 Pro→Ala
  MIC ratio (MIC, mutant/MIC, wild-type): 2
[2]; rpoB 1322 Ser→Pro
  MIC ratio (MIC, mutant/MIC, wild-type): 32
[2]; rpoB 1322 Ser→Thr
  MIC ratio (MIC, mutant/MIC, wild-type): 2
[2]; rpoB 1322 Ser→Tyr
  MIC ratio (MIC, mutant/MIC, wild-type): 2
[2]; rpoB 1322 Ser→Val
  MIC ratio (MIC, mutant/MIC, wild-type): 16
[2]; rpoB 1325 Val→Leu
  MIC ratio (MIC, mutant/MIC, wild-type): 2
[2]; rpoB 1326 Leu→Trp
  MIC ratio (MIC, mutant/MIC, wild-type): 1
[2]; rpoC 345 Lys→Arg
  MIC ratio (MIC, mutant/MIC, wild-type): >32
[2]; rpoC 345 Lys→Asn
  MIC ratio (MIC, mutant/MIC, wild-type): 32
[2]; rpoC 345 Lys→Thr
  MIC ratio (MIC, mutant/MIC, wild-type): 32
[2]; rpoC 1346 Gly→Asp
  MIC ratio (MIC, mutant/MIC, wild-type): 1
[2]; rpoC 1351 Val→Phe
  MIC ratio (MIC, mutant/MIC, wild-type): >32
[2]; rpoC 1352 Ile→Asn
  MIC ratio (MIC, mutant/MIC, wild-type): 2
[2]; rpoC 1352 Ile→Ser
  MIC ratio (MIC, mutant/MIC, wild-type): 2
[2]; rpoC 1354 Gly→Cys
  MIC ratio (MIC, mutant/MIC, wild-type): 2
Bacillus subtilis
  MIC: ≤ 10 µg/mL
[3]
  effect of substitution within the switch-region sequence on binding of Myx to RNAP: reduces binding
[4]
  pKi: 4.70
[5]
  MIC: ≤ 10 µg/mL
mice
  acute toxicity in mice: no acute toxicity
Eukaryotic RNAP II
  inhibition of eukaryotic RNAP II: does not inhibit

## C/C(=C\Cc1ccccc1)CCC(=O)C[C@H]1C[C@H](O)C/C(C)=C/C/C=C/C/C(CC(=O)O)=C\C(=O)O1 [Rip, ripostatin]
Escherichia coli RNAP; results not shown
  effects on transcription, promoter binding, and promoter-subfragment binding: same mechanism as Myx
Bacterial RNAP
  pKi: 6.52
[6]
  MIC: ≤ 1 µg/mL
Staphylococcus aureus
  MIC: ≤ 1 µg/mL
[1]
  bacteriocidal or not: bacteriocidal
[2]; rpoB 1255 Thr→Ile
  MIC ratio (MIC, mutant/MIC, wild-type): 4
[2]; rpoB 1275 Val→Met
  MIC ratio (MIC, mutant/MIC, wild-type): 8
[2]; rpoB 1275 Val→Phe
  MIC ratio (MIC, mutant/MIC, wild-type): >16
[2]; rpoB 1278 Leu→Val
  MIC ratio (MIC, mutant/MIC, wild-type): >16
[2]; rpoB 1279 Glu→Gly
  MIC ratio (MIC, mutant/MIC, wild-type): >16
[2]; rpoB 1279 Glu→Lys
  MIC ratio (MIC, mutant/MIC, wild-type): 4
[2]; rpoB 1283 Ala→Val
  MIC ratio (MIC, mutant/MIC, wild-type): 4
[2]; rpoB 1285 Tyr→Asp
  MIC ratio (MIC, mutant/MIC, wild-type): 4
[2]; rpoB 1291 Leu→Phe
  MIC ratio (MIC, mutant/MIC, wild-type): 4
[2]; rpoB 1298 Val→Leu
  MIC ratio (MIC, mutant/MIC, wild-type): 4
[2]; rpoB 1315 Met→Leu
  MIC ratio (MIC, mutant/MIC, wild-type): 4
[2]; rpoB 1317 Pro→Leu
  MIC ratio (MIC, mutant/MIC, wild-type): 2
[2]; rpoB 1320 Pro→Ala
  MIC ratio (MIC, mutant/MIC, wild-type): 4
[2]; rpoB 1322 Ser→Pro
  MIC ratio (MIC, mutant/MIC, wild-type): >16
[2]; rpoB 1322 Ser→Thr
  MIC ratio (MIC, mutant/MIC, wild-type): 4
[2]; rpoB 1322 Ser→Tyr
  MIC ratio (MIC, mutant/MIC, wild-type): 2
[2]; rpoB 1322 Ser→Val
  MIC ratio (MIC, mutant/MIC, wild-type): >16
[2]; rpoB 1325 Val→Leu
  MIC ratio (MIC, mutant/MIC, wild-type): 4
[2]; rpoB 1326 Leu→Trp
  MIC ratio (MIC, mutant/MIC, wild-type): >16
[2]; rpoC 345 Lys→Arg
  MIC ratio (MIC, mutant/MIC, wild-type): >16
[2]; rpoC 345 Lys→Asn
  MIC ratio (MIC, mutant/MIC, wild-type): 8
[2]; rpoC 345 Lys→Thr
  MIC ratio (MIC, mutant/MIC, wild-type): >16
[2]; rpoC 1346 Gly→Asp
  MIC ratio (MIC, mutant/MIC, wild-type): 4
[2]; rpoC 1351 Val→Phe
  MIC ratio (MIC, mutant/MIC, wild-type): >16
[2]; rpoC 1352 Ile→Asn
  MIC ratio (MIC, mutant/MIC, wild-type): >16
[2]; rpoC 1352 Ile→Ser
  MIC ratio (MIC, mutant/MIC, wild-type): >16
[2]; rpoC 1354 Gly→Cys
  MIC ratio (MIC, mutant/MIC, wild-type): 4
Eukaryotic RNAP II
  inhibition of eukaryotic RNAP II: does not inhibit

Source: patent publication US8114583B2, “Switch-region: target and method for inhibition of bacterial RNA polymerase” (priority 2005, dated 2012)
